Data published in patent publication US9365522B2, “Pyrazole amide derivative” (AMGEN INC., priority 2015, dated 2016).

Biological target: T1, human RORγ-LBD (Homo sapiens, UniProt P51449)
T1 construct: made in house; host or cells: E. coli (BL-21)
T1 sequence (P51449 262-518): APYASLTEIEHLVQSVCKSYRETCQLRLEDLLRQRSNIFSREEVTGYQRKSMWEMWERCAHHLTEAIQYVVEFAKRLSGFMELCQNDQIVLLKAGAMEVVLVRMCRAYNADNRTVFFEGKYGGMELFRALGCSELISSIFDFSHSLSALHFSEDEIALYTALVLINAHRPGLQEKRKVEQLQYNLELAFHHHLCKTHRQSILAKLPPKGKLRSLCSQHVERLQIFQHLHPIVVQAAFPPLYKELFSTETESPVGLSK
Assay: ROR gamma coactivator peptide recruitment Alphascreen assay (RORγ-LBD binding to GRIP1 coactivator peptide)
Format: biochemical
Conditions: 5 nM human RORγ-LBD, 30 nM 7-β-hydroxycholesterol, 50 nM biotinylated GRIP1 coactivator peptide, overnight incubation at room temperature; read-out: result (pIC50, RORγ coactivator peptide recruitment Alphascreen assay) (converted)
Procedure, shortened: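 His/Flag-tagged human RORγ-LBD (aa 262-518, E. coli-expressed, 5 nM) with agonist 7-β-hydroxycholesterol (30 nM) and biotinylated GRIP1 LXXLL peptide (50 nM) in HEPES pH 7.4 buffer, 2.5% DMSO. Compound 1-in-2 dilutions; Alphascreen bead signal read after overnight incubation at room temperature; pIC50 calculated.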

IC50 [nM]	Compound
10	Cc1cc(Cl)c(C(=O)CN(CC2CCCCC2)C(=O)c2cnn([C@H]3CC[C@@H](C(=O)O)CC3)c2C(F)(F)F)c(Cl)n1 [Example 834, cis-4-(4-((cyclohexylmethyl)(2-(2,4-dichloro-6-methyl-3-pyridinyl)-2-oxoethyl)carbamoyl)-5-(trifluoromethyl)-1H-pyrazol-1-yl)cyclohexanecarboxylic acid]
1.45	C[C@]1(C(=O)O)CC[C@H](n2ncc(C(=O)N(CC(=O)c3c(Cl)cc(F)cc3Cl)CC3CCCCC3)c2C(F)(F)F)CC1 [Example 664, trans-4-(4-((cyclohexylmethyl)(2-(2,6-dichloro-4-fluorophenyl)-2-oxoethyl)carbamoyl)-5-(trifluoromethyl)-1H-pyrazol-1-yl)-1-methylcyclohexanecarboxylic acid]
3.16	C[C@]1(C(=O)O)CC[C@H](n2ncc(C(=O)N(CC(=O)c3c(Cl)ccc(F)c3Cl)CC3(C(F)(F)F)CC3)c2C(F)(F)F)CC1 [Example 798, (1r,4r)-4-(4-((2-(2,6-dichloro-3-fluorophenyl)-2-oxoethyl)((1-(trifluoromethyl)cyclopropyl)methyl)carbamoyl)-5-(trifluoromethyl)-1H-pyrazol-1-yl)-1-methylcyclohexanecarboxylic acid]
0.589	CCC1(CN(CC(=O)c2c(Cl)cc(C)cc2Cl)C(=O)c2cnn([C@H]3CC[C@](C)(C(=O)O)CC3)c2C(F)(F)F)CCC1 [Example 744, trans-4-(4-((2-(2,6-dichloro-4-methylphenyl)-2-oxoethyl)((1-ethylcyclobutyl)methyl)carbamoyl)-5-(trifluoromethyl)-1H-pyrazol-1-yl)-1-methylcyclohexanecarboxylic acid]
3.24	CC(C)(CN(CC(=O)c1c(Cl)cncc1Cl)C(=O)c1cnn([C@H]2CC[C@](C)(C(=O)O)CC2)c1C(F)(F)F)C(F)(F)F [Example 692, trans-4-(4-((2-(3,5-dichloro-4-pyridinyl)-2-oxoethyl)(3,3,3-trifluoro-2,2-dimethylpropyl)carbamoyl)-5-(trifluoromethyl)-1H-pyrazol-1-yl)-1-methylcyclohexanecarboxylic acid]
10.5	C=CCC1(CC=C)C[C@H](Cc2c(Cl)cncc2Cl)N(C(=O)c2cnn([C@H]3CC[C@](C)(C(=O)O)CC3)c2C(F)(F)F)C1 [Example 618, trans-4-(4-(((2R)-2-((3,5-dichloro-4-pyridinyl)methyl)-4,4-di(2-propen-1-yl)-1-pyrrolidinyl)carbonyl)-5-(trifluoromethyl)-1H-pyrazol-1-yl)-1-methylcyclohexanecarboxylic acid]
38.9	CC1(C)CC[C@@H]1N(CC(=O)c1c(Cl)cccc1Cl)C(=O)c1cnn([C@H]2CC[C@](C)(C(=O)O)CC2)c1C(F)(F)F [Example 620]
102	CC(C)(C)CN(CC(=O)c1c(Cl)cncc1Cl)C(=O)c1cnn([C@H]2CC[C@@](C)(CC(=O)O)CC2)c1C(F)(F)F [Example 792, (cis-4-(4-((2-(3,5-dichloro-4-pyridinyl)-2-oxoethyl)(2,2-dimethylpropyl)carbamoyl)-5-(trifluoromethyl)-1H-pyrazol-1-yl)-1-methylcyclohexyl)acetic acid]
708	C[C@H]1C[C@](C)(C(=O)O)CC[C@H]1n1ncc(C(=O)N(CC(=O)c2c(Cl)cncc2Cl)CC(C)(C)C)c1C(F)(F)F [Example 883, (1R,3S,4R)-4-(4-((2-(3,5-dichloro-4-pyridinyl)-2-oxoethyl)(2,2-dimethylpropyl)carbamoyl)-5-(trifluoromethyl)-1H-pyrazol-1-yl)-1,3-dimethylcyclohexanecarboxylic acid]
7.59	C[C@H](C(=O)O)[C@H]1CC[C@H](n2ncc(C(=O)N(CC(=O)c3c(Cl)cncc3Cl)Cc3cc(F)cc(F)c3)c2C(F)(F)F)CC1 [Example 780, 2-(trans-4-(4-((2-(3,5-dichloro-4-pyridinyl)-2-oxoethyl)(3,5-difluorobenzyl)carbamoyl)-5-(trifluoromethyl)-1H-pyrazol-1-yl)cyclohexyl)propanoic acid]
13.8	COC1(CN(CC(=O)c2c(Cl)cncc2Cl)C(=O)c2cnn([C@H]3CC[C@](C)(C(=O)O)CC3)c2C(F)(F)F)CCCCC1 [Example 645, trans-4-(4-((2-(3,5-dichloro-4-pyridinyl)-2-oxoethyl)((1-methoxycyclohexyl)methyl)carbamoyl)-5-(trifluoromethyl)-1H-pyrazol-1-yl)1-methylcyclohexanecarboxylic acid]
21.9	CC(C)(C)CN(CC(=O)c1c(Cl)cccc1Cl)C(=O)c1cnn([C@H]2CC[C@@H](C(=O)O)CC2)c1C(F)(F)F [Example 670, cis-4-(4-((2-(2,6-dichlorophenyl)-2-oxoethyl)(2,2-dimethylpropyl)carbamoyl)-5-(trifluoromethyl)-1H-pyrazol-1-yl)cyclohexanecarboxylic acid]
3.02	CC1(CN(CC(=O)c2c(Cl)cncc2Cl)C(=O)c2cnn([C@H]3CC[C@H](CC(=O)O)CC3)c2C(F)(F)F)CCC1 [Example 775, (trans-4-(4-((2-(3,5-dichloro-4-pyridinyl)-2-oxoethyl)((1-methylcyclobutyl)methyl)carbamoyl)-5-(trifluoromethyl)-1H-pyrazol-1-yl)cyclohexyl)acetic acid]

Second part, the molecule before the results:

Compound	IC50 [nM]
CC1(C)CC(CN(CC(=O)c2c(F)cccc2F)C(=O)c2cnn([C@H]3CC[C@](C)(C(=O)O)CC3)c2C(F)(F)F)C1 [Example 598, trans-4-(4-((2-(2,6-difluorophenyl)-2-oxoethyl)((3,3-dimethylcyclobutyl)methyl)carbamoyl)-5-(trifluoromethyl)-1H-pyrazol-1-yl)-1-methylcyclohexanecarboxylic acid]	115
O=C(c1cnn([C@H]2CC[C@H](C(=O)O)CC2)c1C(F)(F)F)N(CCc1ccccc1Cl)Cc1ccc(Cl)cc1 [Example 500, trans-4-(4-((4-chlorobenzyl)(2-(2-chlorophenyl)ethyl)carbamoyl)-5-(trifluoromethyl)-1H-pyrazol-1-yl)cyclohexanecarboxylic acid]	15.1
CC1(C)CCC(N(CCc2c(Cl)cncc2Cl)C(=O)c2cnn([C@H]3CC[C@H](C(=O)O)CC3)c2C(F)(F)F)CC1 [Example 550, trans-4-(4-((2-(3,5-dichloro-4-pyridinyl)ethyl)(4,4-dimethylcyclohexyl)carbamoyl)-5-(trifluoromethyl)-1H-pyrazol-1-yl)cyclohexanecarboxylic acid]	21.4
CC1(C)[C@@H]2C[C@H](N(CC(=O)c3c(Cl)cncc3Cl)C(=O)c3cnn([C@H]4CC[C@](C)(C(=O)O)CC4)c3C(F)(F)F)C[C@@H]21 [Example 558, trans-4-(4-((2-(3,5-dichloro-4-pyridinyl)-2-oxoethyl)((1R,3r,5S)-6,6-dimethylbicyclo[3.1.0]hex-3-yl)carbamoyl)-5-(trifluoromethyl)-1H-pyrazol-1-yl)-1-methylcyclohexanecarboxylic acid]	2.45
O=C(c1cnn([C@H]2CC[C@H](C(=O)O)CC2)c1C(F)(F)F)N(CCc1ccccc1)Cc1ccc(Cl)cc1 [Example 502, trans-4-(4-((4-chlorobenzyl)(2-phenylethyl)carbamoyl)-5-(trifluoromethyl)-1H-pyrazol-1-yl)cyclohexanecarboxylic acid]	275
CC1(C)CC[C@H]1N(CC(=O)c1c(Cl)cncc1Cl)C(=O)c1cnn([C@H]2CC[C@](C)(C(=O)O)CC2)c1C(F)(F)F [Example 616, trans-4-(4-((2-(3,5-dichloro-4-pyridinyl)-2-oxoethyl)((1R)-2,2-dimethylcyclobutyl)carbamoyl)-5-(trifluoromethyl)-1H-pyrazol-1-yl)-1-methylcyclohexanecarboxylic acid]	33.9
CC1(C)CCC(N(CC(=O)c2c(Cl)cccc2Cl)C(=O)c2cnn([C@H]3CC[C@H](C(=O)O)CC3)c2C(F)(F)F)CC1 [Example 525, trans-4-(4-((2-(2,6-dichlorophenyl)-2-oxoethyl)(4,4-dimethylcyclohexyl)carbamoyl)-5-(trifluoromethyl)-1H-pyrazol-1-yl)cyclohexanecarboxylic acid]	5.89
O=C(c1cnn([C@H]2CC[C@H](C(=O)O)CC2)c1C(F)(F)F)N(CCc1cccc2[nH]ccc12)Cc1ccc(Cl)cc1 [Example 506, trans-4-(4-((4-chlorobenzyl)(2-(1H-indol-4-yl)ethyl)carbamoyl)-5-(trifluoromethyl)-1H-pyrazol-1-yl)cyclohexanecarboxylic acid]	69.2
Cc1cc(Cl)c(C(=O)CN(CC2CCCCC2)C(=O)c2cnn([C@H]3CC[C@H](C(=O)O)CC3)c2C(F)(F)F)c(Cl)c1 [Example 537, trans-4-(4-((cyclohexylmethyl)(2-(2,6-dichloro-4-methylphenyl)-2-oxoethyl)carbamoyl)-5-(trifluoromethyl)-1H-pyrazol-1-yl)cyclohexanecarboxylic acid]	2.24
O=C(CN(Cc1ccc(F)cc1)C(=O)c1cnn([C@H]2CC[C@H](C(=O)O)CC2)c1C(F)(F)F)c1c(Cl)cnc2ccccc12 [Example 539, trans-4-(4-((2-(3-chloro-4-quinolinyl)-2-oxoethyl)(4-fluorobenzyl)carbamoyl)-5-(trifluoromethyl)-1H-pyrazol-1-yl)cyclohexanecarboxylic acid]	89.1
